Results as given in ChEMBL document CHEMBL1126509, “Trisnorsqualene methyl hydroxylamine: a potent dual inhibitor of mammalian squalene epoxidase and oxidosqualene cyclase” (Bioorg Med Chem Lett, 1993).

Legend:
[1] = Inhibitory concentration at which 50% decrease in the activity of Squalene epoxidase and Oxidosqualene cyclase in pig liver microsomes; NI means no inhibition; set-up: species or system Sus scrofa, Microsome
[2] = Inhibitory concentration at which 50% decrease in the activity of Squalene epoxidase in pig liver microsomes; NI means no inhibition
[3] = Inhibitory concentration at which 50% decrease in the activity of Squalene epoxidase and Oxidosqualene cyclase in pig liver microsomes; set-up: species or system Sus scrofa, Microsome

SMILES | IC50 [1] | IC50 [2] | IC50 [3] [µM]
CC(C)=CCC/C(C)=C/CC/C(C)=C/CC/C=C(\C)CC/C=C(\C)CC/C=N/O | Not Active | Not Active | 
CC(C)=CCC/C(C)=C/CC/C(C)=C/CC/C=C(\C)CC/C=C(\C)CCCN(C)O |  |  | 5
CC(C)=CCC/C(C)=C/CC/C(C)=C/CC/C=C(\C)CC/C=C(\C)CCC(O)C[N+](=O)[O-] (stereo not given) |  |  | 200
CC(C)=CCC/C(C)=C/CC/C(C)=C/CC/C=C(\C)CC/C=C(\C)CC/C=C/[N+](=O)[O-] |  |  | > 400
